Source: ChEMBL document CHEMBL1201862, “PubChem BioAssay data set” (2004)
Active and inactive are the calls of the source.

Columns and labels:
[1] = target: T1, Neuropeptides B/W receptor type 1 (Homo sapiens, UniProt P48145); assay: GPR7 antagonist potency, late-stage follow-up, cell-based, fluorescence, dose response, set 6 (AID 588583); assay type: functional
T1 sequence (P48145 whole entry): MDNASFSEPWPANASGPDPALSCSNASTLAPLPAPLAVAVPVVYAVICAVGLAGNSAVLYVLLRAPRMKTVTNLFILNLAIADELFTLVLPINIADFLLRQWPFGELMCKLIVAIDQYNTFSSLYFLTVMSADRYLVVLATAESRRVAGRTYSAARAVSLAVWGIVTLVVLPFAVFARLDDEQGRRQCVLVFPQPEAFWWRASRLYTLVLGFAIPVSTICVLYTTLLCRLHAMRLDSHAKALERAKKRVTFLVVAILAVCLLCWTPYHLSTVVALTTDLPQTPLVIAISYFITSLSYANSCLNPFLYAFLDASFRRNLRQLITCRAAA

[2] = target: Melanin-concentrating hormone receptor 1 (Homo sapiens, UniProt Q99705); assay: Late-stage fluorescence-based counterscreen for antagonists of the G-protein coupled receptor 7 (GPR7): cell-based dose response assay to identify antagonists of the melanin-concentrating hormone receptor 1 (MCHR1) Set 6.; assay type: functional
Melanin-concentrating hormone receptor 1, sequence (Q99705 whole entry): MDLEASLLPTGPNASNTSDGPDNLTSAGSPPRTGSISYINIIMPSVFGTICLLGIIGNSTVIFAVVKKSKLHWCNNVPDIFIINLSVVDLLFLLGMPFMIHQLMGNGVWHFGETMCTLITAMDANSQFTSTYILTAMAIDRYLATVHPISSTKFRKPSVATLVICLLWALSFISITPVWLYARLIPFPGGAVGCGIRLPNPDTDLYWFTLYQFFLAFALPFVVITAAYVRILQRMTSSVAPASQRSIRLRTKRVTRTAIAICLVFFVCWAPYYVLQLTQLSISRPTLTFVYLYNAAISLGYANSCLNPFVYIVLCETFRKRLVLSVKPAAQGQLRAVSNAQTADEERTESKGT

[3] = target: Platelet-activating factor acetylhydrolase (Mus musculus, UniProt Q60963); assay: Late stage assay provider results from the probe development effort to identify inhibitors of pPAFAH: fluorescence-based dose-response biochemical gel-based competitive Activity-Based Protein Profiling (ABPP) assay for SAR compounds.; assay type: functional
Platelet-activating factor acetylhydrolase, sequence (Q60963 whole entry): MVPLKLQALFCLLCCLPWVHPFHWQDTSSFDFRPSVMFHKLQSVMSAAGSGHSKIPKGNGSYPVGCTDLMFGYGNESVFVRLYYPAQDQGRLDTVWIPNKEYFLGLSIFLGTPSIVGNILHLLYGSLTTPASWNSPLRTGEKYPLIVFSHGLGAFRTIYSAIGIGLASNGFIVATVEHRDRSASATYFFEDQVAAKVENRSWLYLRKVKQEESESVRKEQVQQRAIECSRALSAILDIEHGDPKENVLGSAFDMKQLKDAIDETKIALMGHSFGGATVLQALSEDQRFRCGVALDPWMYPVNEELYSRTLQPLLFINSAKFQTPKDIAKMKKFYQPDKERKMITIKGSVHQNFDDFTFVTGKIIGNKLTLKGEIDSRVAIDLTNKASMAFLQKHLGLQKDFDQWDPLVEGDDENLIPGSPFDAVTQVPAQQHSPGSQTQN

[4] = target: Interleukin-8 (Homo sapiens, UniProt P10145); assay: Dose Response confirmation of uHTS small molecule hits for cystic fibrosis induced NFkb Inhibitors in a PAF-induced IL8 counterscreen.; assay type: functional; settings: read-out: IC50_Mean
Interleukin-8, sequence (P10145 whole entry): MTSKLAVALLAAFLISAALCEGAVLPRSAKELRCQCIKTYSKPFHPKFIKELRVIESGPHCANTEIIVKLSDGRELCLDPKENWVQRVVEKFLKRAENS

[5] = target: Mitochondrial peptide methionine sulfoxide reductase (Bos taurus, UniProt P54149); assay type: functional;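 note: absorbance read-out, biochemical high-throughput dose-response screen for MsrA inhibitors, confirmatory; recombinant bovine MsrA coupled to E. coli TrxB with NADPH and selenocystamine; potency is for inhibitors of MsrA activity on DMSO substrate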
Mitochondrial peptide methionine sulfoxide reductase, sequence (P54149 whole entry): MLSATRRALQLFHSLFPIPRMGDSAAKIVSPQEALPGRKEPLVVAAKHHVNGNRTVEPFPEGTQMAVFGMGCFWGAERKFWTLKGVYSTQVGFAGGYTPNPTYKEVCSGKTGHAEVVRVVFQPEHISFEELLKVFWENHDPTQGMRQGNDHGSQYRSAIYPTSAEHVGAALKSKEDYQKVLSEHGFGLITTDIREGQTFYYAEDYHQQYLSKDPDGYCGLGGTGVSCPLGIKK

[6] = target: T2, Protein RecA (Mycobacterium tuberculosis, UniProt P9WHJ3); assay: Fluorescence Cell-Free Homogeneous Dose Retest to Identify Inhibitors of RecA-Intein Splicing Activity. [Related pubchem assays (depositor defined):AID2097, AID2223, AID489010, AID492950]; assay type: functional
T2 sequence (P9WHJ3 whole entry): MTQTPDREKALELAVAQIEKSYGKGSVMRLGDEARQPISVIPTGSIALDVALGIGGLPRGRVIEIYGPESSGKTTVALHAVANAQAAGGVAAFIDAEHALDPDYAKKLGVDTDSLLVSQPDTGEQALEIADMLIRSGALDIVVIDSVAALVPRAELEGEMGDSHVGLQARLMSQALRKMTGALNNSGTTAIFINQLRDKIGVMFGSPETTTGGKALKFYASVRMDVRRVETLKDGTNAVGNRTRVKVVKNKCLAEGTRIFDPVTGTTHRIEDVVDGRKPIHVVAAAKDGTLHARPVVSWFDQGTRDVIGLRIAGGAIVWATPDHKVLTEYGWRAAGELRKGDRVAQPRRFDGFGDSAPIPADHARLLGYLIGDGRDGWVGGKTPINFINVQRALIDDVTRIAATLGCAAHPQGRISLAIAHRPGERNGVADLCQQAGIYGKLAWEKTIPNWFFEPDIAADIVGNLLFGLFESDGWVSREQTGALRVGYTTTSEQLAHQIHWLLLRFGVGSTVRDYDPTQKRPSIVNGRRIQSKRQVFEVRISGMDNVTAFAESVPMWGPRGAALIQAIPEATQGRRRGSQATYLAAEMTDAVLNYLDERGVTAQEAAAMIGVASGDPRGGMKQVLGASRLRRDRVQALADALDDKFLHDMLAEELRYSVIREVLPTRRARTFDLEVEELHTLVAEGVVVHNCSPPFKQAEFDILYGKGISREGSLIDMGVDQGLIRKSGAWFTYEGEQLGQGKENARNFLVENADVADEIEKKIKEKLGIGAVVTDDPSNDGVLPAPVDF

[7] = target: Induced myeloid leukemia cell differentiation protein Mcl-1 (Homo sapiens, UniProt Q07820); assay type: functional
Induced myeloid leukemia cell differentiation protein Mcl-1, sequence (Q07820 whole entry): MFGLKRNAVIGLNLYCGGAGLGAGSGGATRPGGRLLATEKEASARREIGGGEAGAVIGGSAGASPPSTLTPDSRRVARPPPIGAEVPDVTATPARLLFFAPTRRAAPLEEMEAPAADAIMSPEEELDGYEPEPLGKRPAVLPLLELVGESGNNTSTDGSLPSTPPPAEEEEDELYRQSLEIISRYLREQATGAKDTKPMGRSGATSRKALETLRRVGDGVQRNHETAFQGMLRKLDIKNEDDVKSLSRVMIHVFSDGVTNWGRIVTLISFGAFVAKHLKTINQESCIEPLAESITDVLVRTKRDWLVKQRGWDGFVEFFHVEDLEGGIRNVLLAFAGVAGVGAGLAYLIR

[8] = target: T3, Small ubiquitin-related modifier 2 (Homo sapiens, UniProt P61956); assay: inhibitors of SUMO2 protein-protein interaction, dose response, selectivity assay for SUMO1 interaction inhibitor project, biochemical, FRET, human SUMO2, uHTS hits (AID 624384); assay type: functional; settings: read-out: IC50_Mean
T3 sequence (P61956 whole entry): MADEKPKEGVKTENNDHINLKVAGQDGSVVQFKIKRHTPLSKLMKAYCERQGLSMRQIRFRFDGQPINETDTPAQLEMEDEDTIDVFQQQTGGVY

[9] = target: T4, Small ubiquitin-related modifier 1 (Homo sapiens, UniProt P63165); assay: inhibitors of SUMO1 partner interactions, dose response, biochemical, FRET (AID 624383); assay type: functional; settings: read-out: IC50_Mean
T4 sequence (P63165 whole entry): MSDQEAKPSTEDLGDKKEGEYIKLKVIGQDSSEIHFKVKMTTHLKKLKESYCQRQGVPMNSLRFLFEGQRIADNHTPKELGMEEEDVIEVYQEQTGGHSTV

[10] = target: T3, Small ubiquitin-related modifier 2; assay: SUMO2–SIM peptide binding inhibitors, dose response, selectivity assay for SUMO1 interaction inhibitor project, biochemical, fluorescence polarization, uHTS hits (AID 624385); assay type: functional; settings: read-out: IC50_Mean
[11] = target: T4, Small ubiquitin-related modifier 1; assay: inhibitors of SUMO1 peptide binding, dose response, biochemical, fluorescence polarization, uHTS hits (AID 624382); assay type: functional; settings: read-out: IC50_Mean
[12] = target: T5, Replicative DNA helicase DnaB (Mycobacterium tuberculosis, UniProt P9WMR3); assay: DnaB intein splicing inhibitors, dose response, biochemical, cell-free fluorescence (AID 449749); assay type: functional
T5 sequence (P9WMR3 whole entry): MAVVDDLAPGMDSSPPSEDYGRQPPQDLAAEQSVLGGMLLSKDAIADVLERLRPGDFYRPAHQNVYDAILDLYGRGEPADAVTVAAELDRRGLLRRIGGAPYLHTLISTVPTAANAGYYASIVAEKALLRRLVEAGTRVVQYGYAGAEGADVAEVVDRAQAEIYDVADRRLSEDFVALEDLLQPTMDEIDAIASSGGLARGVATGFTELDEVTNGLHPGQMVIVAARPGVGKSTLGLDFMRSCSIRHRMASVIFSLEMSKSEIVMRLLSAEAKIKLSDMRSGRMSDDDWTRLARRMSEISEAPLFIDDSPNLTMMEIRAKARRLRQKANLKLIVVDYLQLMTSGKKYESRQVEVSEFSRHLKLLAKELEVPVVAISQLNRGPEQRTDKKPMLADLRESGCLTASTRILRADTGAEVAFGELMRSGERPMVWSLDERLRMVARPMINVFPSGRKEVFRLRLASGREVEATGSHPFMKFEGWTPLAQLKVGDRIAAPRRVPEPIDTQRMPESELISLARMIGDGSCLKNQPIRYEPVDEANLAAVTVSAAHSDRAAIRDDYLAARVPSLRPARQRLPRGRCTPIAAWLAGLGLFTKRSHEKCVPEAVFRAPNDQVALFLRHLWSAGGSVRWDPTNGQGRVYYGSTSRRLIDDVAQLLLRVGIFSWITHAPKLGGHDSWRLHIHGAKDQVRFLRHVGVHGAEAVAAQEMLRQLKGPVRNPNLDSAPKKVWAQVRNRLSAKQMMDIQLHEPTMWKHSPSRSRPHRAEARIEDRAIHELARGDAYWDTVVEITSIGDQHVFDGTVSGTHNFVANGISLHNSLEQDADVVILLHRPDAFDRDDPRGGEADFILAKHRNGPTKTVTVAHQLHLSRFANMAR

[13] = target: SWI/SNF-related matrix-associated actin-dependent regulator of chromatin subfamily A member 2 (Homo sapiens, UniProt P51531); assay: Luminescence-based cell-based high throughput dose response assay to identify activators of the function of SWI/SNF related, matrix associated, actin dependent regulator of chromatin, subfamily a, member 2 (SMARCA2, BRM).; assay type: functional
[14] = target: DNA (cytosine-5)-methyltransferase 1 (Homo sapiens, UniProt P26358); assay: DNMT1 methyltransferase inhibitors, confirmation, biochemical, fluorescent molecular beacon (AID 602386); assay type: functional
DNA (cytosine-5)-methyltransferase 1, sequence (P26358 whole entry): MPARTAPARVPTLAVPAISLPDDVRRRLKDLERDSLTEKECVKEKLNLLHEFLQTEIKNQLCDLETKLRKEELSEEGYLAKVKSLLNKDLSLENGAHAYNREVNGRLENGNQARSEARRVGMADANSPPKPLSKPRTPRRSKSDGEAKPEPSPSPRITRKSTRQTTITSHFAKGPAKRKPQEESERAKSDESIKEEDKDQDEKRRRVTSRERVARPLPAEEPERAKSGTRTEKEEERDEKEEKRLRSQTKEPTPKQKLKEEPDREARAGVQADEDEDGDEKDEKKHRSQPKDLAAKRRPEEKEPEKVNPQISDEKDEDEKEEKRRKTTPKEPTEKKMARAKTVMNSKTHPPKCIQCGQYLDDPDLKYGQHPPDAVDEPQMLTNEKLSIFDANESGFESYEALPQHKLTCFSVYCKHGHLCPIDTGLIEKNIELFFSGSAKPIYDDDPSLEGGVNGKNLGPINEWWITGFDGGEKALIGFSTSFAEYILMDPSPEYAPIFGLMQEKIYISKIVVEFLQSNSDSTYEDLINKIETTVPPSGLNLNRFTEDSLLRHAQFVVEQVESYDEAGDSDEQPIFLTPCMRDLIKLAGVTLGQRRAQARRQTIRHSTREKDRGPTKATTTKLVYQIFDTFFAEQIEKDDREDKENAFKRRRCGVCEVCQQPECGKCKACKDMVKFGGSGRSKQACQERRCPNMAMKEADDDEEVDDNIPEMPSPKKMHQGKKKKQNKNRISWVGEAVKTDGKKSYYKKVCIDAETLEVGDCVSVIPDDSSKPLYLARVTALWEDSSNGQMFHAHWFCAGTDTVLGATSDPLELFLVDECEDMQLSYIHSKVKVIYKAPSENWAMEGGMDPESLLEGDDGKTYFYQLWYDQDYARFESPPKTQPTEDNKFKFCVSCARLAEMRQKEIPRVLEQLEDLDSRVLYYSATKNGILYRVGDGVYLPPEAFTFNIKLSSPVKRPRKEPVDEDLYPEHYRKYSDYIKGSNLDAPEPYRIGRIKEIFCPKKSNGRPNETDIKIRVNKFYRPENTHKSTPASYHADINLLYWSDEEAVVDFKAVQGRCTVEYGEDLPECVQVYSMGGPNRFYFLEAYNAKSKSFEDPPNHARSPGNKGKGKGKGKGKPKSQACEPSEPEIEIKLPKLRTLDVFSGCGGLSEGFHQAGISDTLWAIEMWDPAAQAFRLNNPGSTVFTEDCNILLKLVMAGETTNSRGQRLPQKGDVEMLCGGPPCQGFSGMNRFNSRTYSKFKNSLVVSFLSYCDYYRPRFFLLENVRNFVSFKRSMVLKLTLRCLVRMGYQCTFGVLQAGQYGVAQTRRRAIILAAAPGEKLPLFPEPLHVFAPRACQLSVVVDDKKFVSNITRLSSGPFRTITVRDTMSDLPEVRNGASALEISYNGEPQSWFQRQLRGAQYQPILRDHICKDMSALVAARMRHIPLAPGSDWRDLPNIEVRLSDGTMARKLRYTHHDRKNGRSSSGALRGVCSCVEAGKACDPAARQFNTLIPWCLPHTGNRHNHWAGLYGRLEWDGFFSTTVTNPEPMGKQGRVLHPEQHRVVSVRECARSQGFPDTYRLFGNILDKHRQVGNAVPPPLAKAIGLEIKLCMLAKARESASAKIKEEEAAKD

[15] = target: T6, Polyadenylate-binding protein 1 (Homo sapiens, UniProt P11940); assay: PABP1 MLLE–PAM2 interaction inhibitors, dose response, miRNA deadenylation inhibitor project, biochemical, fluorescence polarization, Cy5-PAM2 peptide, secondary (AID 602260); assay type: functional; settings: read-out: IC50_Mean
T6 sequence (P11940 whole entry): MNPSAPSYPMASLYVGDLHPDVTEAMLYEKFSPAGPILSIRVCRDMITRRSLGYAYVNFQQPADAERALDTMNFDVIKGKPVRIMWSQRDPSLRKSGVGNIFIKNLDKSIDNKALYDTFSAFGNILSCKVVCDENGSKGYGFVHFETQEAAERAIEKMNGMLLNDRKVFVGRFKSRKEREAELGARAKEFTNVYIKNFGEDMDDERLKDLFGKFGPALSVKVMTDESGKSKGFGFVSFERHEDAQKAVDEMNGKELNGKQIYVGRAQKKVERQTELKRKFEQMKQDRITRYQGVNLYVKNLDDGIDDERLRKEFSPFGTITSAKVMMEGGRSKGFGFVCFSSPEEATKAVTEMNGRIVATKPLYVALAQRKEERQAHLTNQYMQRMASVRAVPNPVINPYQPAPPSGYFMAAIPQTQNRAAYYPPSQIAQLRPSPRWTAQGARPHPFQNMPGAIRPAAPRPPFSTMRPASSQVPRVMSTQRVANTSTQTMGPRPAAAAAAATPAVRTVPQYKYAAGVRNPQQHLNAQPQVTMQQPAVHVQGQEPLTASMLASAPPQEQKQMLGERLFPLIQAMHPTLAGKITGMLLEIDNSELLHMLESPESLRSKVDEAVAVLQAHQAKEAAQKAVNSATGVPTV

[16] = Counterscreen for activators of the function of SWI/SNF related, matrix associated, actin dependent regulator of chromatin, subfamily a, member 2 (SMARCA2, BRM): Luminescence-based cell-based high throughput dose response assay to identify non-selective compounds using the VP16 reporter assay.; assay type: functional
[17] = target: Cytochrome P450 3A4 (Homo sapiens, UniProt P08684); settings: Potency;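 note: confirmatory qHTS run detecting inhibitors and substrates of CYP3A4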
Cytochrome P450 3A4, sequence (P08684 whole entry): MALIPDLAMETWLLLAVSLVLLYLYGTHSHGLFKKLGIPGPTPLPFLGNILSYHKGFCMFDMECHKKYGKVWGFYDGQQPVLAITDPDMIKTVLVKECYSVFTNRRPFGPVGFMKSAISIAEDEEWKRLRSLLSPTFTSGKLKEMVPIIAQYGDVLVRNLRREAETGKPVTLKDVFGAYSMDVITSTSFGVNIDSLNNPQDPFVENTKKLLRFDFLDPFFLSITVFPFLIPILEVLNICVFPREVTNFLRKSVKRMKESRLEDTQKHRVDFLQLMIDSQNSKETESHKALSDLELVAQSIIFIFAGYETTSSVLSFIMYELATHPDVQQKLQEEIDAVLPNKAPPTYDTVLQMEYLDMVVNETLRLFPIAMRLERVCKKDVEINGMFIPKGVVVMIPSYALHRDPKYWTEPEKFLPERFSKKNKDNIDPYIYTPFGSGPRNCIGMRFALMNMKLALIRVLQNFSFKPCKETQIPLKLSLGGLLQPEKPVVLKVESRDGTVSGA

[18] = target: T6, Polyadenylate-binding protein 1; assay: PABP1 MLLE–PAM2 binding inhibitor potency, dose response, biochemical, fluorescence polarization, FITC-PAM2 peptide (AID 602259); assay type: functional; settings: read-out: IC50_Mean

Structure (SMILES): N#CC(C#N)c1c(Cl)cnn(Cc2cccc3ccccc23)c1=O
- IC50 [1]: 17.4 µM (inactive)
- IC50 [2]: 17.4 µM (inactive)

Structure (SMILES): Cc1cc(N2CCN(C(=O)Oc3ccc(-n4cccc4)cc3)CC2)c2ccccc2n1
- IC50 [3]: 0.057 µM (active)

Structure (SMILES): NC(=O)c1cc2ccc(O)cc2o/c1=N\c1ccccc1
- IC50 [4]: 6.71 µM (active)

Structure (SMILES): C/C(=N\Nc1ccc(S(N)(=O)=O)cc1[N+](=O)[O-])c1cccnc1
- IC50 [5]: 155 µM (inactive)

Structure (SMILES): NC1=C2C(=O)c3ccccc3C(=O)C2=C(N)CC1
- EC50 [6]: 3.57 µM (active)
- IC50 [7]: 1.8 µM (not active)
- IC50 [8]: > 66 µM (inactive)
- IC50 [9]: 52.4 µM (inactive)
- IC50 [10]: 10.5 µM (active)
- IC50 [11]: 7.71 µM (active)
- AC50 [12]: 11.3 µM (active)

Structure (SMILES): O=C1c2ccccc2-c2cccc3cccc1c23 [BENZANTHRONE]
- EC50 [13]: > 91.2 µM (inactive)
- IC50 [14]: 41 µM (active)
- IC50 [15]: > 66 µM (inactive)
- EC50 [16]: > 91.2 µM (inactive)
- AC50 [17]: 39.8 µM (inconclusive)
- IC50 [18]: 34 µM (inactive)
